Assay results: US10344060B2 (priority 2013, dated 2019)
Where two headings read alike, the source gives them in different places.

What was measured:
Experiment in all cases: cell-based
[1] = target: hNav1.4 (Homo sapiens, UniProt P35499); type: cell-based; conditions: for IC50: IonWorks Quattro, read-out: IC50 (μM) Nav1.4; for Nav1.4/Nav1.7: ratio of IonWorks Quattro IC50 values
[2] = target: hNav1.3 (Homo sapiens, UniProt Q9NY46); conditions: IonWorks Quattro, read-out: IC50 (μM) Nav1.3
[3] = target: hNav1.7 (Homo sapiens, UniProt Q15858); conditions: read-out: IC50 (μM) Nav1.7
[4] = target: hNav1.5 (Homo sapiens, UniProt Q14524); conditions: IonWorks Quattro, read-out: IC50 (μM) Nav1.5
Chain of hNav1.5 (Q14524 whole entry): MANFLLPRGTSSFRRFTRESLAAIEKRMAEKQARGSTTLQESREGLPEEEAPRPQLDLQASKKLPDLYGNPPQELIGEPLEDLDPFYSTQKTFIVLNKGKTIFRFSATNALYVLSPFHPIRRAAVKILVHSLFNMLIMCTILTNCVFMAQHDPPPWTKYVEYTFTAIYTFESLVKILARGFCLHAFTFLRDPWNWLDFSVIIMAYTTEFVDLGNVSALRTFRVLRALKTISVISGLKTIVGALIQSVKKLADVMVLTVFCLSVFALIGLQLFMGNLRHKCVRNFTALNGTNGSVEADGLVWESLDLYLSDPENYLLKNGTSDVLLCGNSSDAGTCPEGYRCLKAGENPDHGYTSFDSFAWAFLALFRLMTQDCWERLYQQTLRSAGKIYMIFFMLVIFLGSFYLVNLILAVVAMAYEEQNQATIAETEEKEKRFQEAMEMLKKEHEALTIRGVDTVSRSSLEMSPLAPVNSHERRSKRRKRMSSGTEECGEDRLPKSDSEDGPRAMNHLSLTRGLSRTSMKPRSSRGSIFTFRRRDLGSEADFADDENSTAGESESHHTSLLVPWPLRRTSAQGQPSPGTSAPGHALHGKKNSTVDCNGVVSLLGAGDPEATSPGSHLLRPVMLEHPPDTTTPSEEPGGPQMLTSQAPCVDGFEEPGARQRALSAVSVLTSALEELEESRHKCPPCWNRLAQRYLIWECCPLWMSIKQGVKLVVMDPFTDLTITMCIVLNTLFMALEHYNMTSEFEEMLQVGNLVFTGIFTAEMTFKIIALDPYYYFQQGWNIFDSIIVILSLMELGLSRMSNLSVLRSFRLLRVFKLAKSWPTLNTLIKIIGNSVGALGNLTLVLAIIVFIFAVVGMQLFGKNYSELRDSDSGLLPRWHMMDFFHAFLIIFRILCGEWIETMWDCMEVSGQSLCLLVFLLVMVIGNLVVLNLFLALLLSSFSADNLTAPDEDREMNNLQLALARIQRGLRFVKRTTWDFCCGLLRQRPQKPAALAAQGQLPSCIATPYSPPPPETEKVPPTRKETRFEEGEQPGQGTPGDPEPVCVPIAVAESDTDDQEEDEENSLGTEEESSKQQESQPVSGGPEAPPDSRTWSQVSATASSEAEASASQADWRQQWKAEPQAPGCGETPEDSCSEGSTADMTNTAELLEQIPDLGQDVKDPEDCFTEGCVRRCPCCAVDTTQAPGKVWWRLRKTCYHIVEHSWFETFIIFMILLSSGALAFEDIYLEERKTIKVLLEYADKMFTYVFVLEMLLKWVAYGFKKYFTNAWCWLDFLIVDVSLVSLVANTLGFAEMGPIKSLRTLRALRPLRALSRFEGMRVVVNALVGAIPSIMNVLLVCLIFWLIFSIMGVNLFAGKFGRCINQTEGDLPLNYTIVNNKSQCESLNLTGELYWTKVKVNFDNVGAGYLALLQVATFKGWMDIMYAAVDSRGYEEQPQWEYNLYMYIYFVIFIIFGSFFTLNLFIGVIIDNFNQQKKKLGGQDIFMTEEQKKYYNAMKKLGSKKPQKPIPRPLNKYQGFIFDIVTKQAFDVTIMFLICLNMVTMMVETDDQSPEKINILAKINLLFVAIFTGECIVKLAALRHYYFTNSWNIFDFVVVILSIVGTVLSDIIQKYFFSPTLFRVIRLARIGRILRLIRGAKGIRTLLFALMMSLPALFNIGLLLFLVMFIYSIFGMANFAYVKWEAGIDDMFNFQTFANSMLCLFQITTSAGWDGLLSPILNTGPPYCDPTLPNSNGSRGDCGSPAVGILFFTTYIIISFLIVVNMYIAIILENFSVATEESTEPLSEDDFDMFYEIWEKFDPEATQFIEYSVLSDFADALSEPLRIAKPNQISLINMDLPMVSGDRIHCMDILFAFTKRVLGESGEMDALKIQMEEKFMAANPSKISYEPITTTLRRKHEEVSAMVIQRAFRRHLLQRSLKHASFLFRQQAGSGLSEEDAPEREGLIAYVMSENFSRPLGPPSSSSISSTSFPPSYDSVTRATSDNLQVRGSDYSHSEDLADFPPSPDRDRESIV

Chain of hNav1.3 (Q9NY46 whole entry): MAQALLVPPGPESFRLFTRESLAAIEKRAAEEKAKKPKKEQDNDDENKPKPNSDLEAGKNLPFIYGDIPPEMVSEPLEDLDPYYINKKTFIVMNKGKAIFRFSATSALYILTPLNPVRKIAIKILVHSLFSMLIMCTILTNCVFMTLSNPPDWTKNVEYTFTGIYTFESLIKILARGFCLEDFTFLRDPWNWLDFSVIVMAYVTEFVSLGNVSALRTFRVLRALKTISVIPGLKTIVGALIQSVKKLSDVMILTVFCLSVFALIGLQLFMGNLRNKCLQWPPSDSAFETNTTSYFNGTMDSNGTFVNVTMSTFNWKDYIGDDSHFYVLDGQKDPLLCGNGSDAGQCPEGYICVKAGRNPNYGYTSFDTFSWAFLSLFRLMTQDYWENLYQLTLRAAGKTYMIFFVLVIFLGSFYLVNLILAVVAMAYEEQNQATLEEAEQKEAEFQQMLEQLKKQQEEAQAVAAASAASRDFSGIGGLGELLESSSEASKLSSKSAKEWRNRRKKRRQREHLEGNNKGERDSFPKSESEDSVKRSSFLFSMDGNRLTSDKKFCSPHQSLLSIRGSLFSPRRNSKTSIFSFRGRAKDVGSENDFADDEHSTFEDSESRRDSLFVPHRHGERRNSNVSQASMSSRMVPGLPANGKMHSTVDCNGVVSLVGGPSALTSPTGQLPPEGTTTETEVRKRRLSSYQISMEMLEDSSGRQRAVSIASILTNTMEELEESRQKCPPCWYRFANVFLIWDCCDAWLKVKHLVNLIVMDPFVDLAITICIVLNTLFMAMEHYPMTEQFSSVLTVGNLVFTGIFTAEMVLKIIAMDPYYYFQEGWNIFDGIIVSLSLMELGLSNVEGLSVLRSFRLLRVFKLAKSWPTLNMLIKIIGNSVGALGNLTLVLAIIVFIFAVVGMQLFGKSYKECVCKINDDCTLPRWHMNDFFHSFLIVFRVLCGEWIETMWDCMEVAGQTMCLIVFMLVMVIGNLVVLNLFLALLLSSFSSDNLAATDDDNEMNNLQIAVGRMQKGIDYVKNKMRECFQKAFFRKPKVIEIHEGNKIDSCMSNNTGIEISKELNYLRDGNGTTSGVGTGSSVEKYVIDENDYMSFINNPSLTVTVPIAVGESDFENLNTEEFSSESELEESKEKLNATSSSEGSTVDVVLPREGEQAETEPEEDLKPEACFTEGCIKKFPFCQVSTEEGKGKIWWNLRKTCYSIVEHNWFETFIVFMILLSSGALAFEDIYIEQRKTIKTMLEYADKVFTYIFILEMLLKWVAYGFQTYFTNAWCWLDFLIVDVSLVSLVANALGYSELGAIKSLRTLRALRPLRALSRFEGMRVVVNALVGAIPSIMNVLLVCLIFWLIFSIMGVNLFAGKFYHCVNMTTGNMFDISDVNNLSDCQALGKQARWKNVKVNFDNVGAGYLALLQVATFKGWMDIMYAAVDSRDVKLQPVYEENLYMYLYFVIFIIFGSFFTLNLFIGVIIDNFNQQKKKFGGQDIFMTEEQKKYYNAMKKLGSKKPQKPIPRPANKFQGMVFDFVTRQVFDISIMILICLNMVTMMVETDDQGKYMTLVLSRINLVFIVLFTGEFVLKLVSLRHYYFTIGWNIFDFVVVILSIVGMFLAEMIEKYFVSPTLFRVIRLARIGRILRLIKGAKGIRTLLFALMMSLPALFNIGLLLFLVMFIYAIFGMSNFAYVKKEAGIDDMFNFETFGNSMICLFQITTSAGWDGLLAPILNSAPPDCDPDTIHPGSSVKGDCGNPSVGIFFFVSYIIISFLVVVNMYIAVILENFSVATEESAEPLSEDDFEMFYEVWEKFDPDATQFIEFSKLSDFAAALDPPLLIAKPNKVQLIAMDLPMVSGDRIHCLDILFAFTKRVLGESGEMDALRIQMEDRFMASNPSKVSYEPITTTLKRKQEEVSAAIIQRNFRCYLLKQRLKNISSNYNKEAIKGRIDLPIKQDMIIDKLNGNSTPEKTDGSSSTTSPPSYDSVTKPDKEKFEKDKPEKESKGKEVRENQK

| SMILES | IC50 ([1]; Table 6) | Nav1.4/Nav1.7 ([1]; Table 6) | IC50 ([2]; Table 6) | IC50 [3] | IC50 ([4]; Table 6) | IC50 ([1]; Table 9) | IC50 ([2]; Table 9) | IC50 ([3]; IonWorks Quattro, […]) | IC50 ([4]; Table 9) |
| --- | --- | --- | --- | --- | --- | --- | --- | --- | --- |
| CC[C@H](C)[C@H](NC(=O)[C@@H](NC(=O)[C@H](CCCCN)NC(=O)[C@H](CCCNC(=N)N)NC(=O)[C@@H]1CSSC[C@@H]2NC(=O)[C@H](C)NC(=O)[C@H](CCCNC(=N)N)NC(=O)[C@H](CCCCN)NC(=O)[C@H](CO)NC(=O)[C@H](CC(=O)O)NC(=O)[C@@H]3CSSC[C@H](NC(=O)[C@H](CCCNC(=N)N)NC(=O)[C@H](CC(C)C)NC(=O)[C@H](C)NC(=O)[C@H](CCC(=O)O)NC(=O)[C@H](CSSC[C@H](NC(=O)[C@@H](N)Cc4ccc(O)cc4)C(=O)N[C@@H](CCC(N)=O)C(=O)N[C@@H](CCCCN)C(=O)N[C@@H](Cc4c[nH]c5ccccc45)C(=O)N[C@@H](CCSC)C(=O)N[C@@H](Cc4c[nH]c5ccccc45)C(=O)N[C@@H]([C@@H](C)O)C(=O)N3)NC2=O)C(=O)N[C@@H](CCCCN)C(=O)N[C@@H](CC(C)C)C(=O)N[C@@H](Cc2c[nH]c3ccccc23)C(=O)N1)[C@@H](C)CC)C(N)=O [compound 15] | 0.26 µM | 7 | 0.24 µM | 0.04 µM | > 5 µM | – | – | – | – |
| CC[C@H](C)[C@H](NC(=O)[C@@H](NC(=O)[C@H](CCCCN)NC(=O)[C@H](CCCNC(=N)N)NC(=O)[C@@H]1CSSC[C@@H]2NC(=O)[C@H](C)NC(=O)[C@H](CCCNC(=N)N)NC(=O)[C@H](CCCCN)NC(=O)[C@H](CCCCN)NC(=O)[C@H](CC(=O)O)NC(=O)[C@@H]3CSSC[C@H](NC(=O)[C@H](CCCNC(=N)N)NC(=O)[C@H](CC(C)C)NC(=O)CNC(=O)[C@H](CCC(=O)O)NC(=O)[C@H](CSSC[C@H](NC(=O)[C@@H](N)Cc4ccc(O)cc4)C(=O)N[C@@H](CCC(N)=O)C(=O)N[C@@H](CCCCN)C(=O)N[C@@H](Cc4c[nH]c5ccccc45)C(=O)N[C@@H](CCSC)C(=O)N[C@@H](Cc4c[nH]c5ccccc45)C(=O)N[C@@H]([C@@H](C)O)C(=O)N3)NC2=O)C(=O)N[C@@H](CCCCN)C(=O)N[C@@H](CC(C)C)C(=O)N[C@@H](Cc2c[nH]c3ccccc23)C(=O)N1)[C@@H](C)CC)C(N)=O [compound 78] | 0.11 µM | 13 | 0.05 µM | 0.008 µM | 1.1 µM | – | – | – | – |
| CC[C@H](C)[C@H](NC(=O)[C@H](CCCCN)NC(=O)[C@H](CCCNC(=N)N)NC(=O)[C@@H]1CSSC[C@@H]2NC(=O)[C@H](C)NC(=O)[C@H](CCCNC(=N)N)NC(=O)[C@H](CCCCN)NC(=O)[C@H](CO)NC(=O)[C@H](CC(=O)O)NC(=O)[C@@H]3CSSC[C@H](NC(=O)[C@H](CCCNC(=N)N)NC(=O)[C@H](CC(C)C)NC(=O)CNC(=O)[C@H](CCC(=O)O)NC(=O)[C@H](CSSC[C@H](NC(=O)[C@@H](N)Cc4ccc(O)cc4)C(=O)N[C@@H](CCC(N)=O)C(=O)N[C@@H](CCCCN)C(=O)N[C@@H](Cc4c[nH]c5ccccc45)C(=O)N[C@@H](CCSC)C(=O)N[C@@H](Cc4c[nH]c5ccccc45)C(=O)N[C@@H]([C@@H](C)O)C(=O)N3)NC2=O)C(=O)N[C@@H](CCCCN)C(=O)N[C@@H](CC(C)C)C(=O)N[C@@H](Cc2c[nH]c3ccccc23)C(=O)N1)C(=O)N[C@@H](CCCCN)C(N)=O [compound 89] | 1.3 µM | 11 | 2.4 µM | 0.11 µM | > 5 µM | – | – | – | – |
| CC[C@H](C)[C@H](NC(=O)[C@@H](NC(=O)[C@H](CCCCN)NC(=O)[C@H](CCCNC(=N)N)NC(=O)[C@@H]1CSSC[C@@H]2NC(=O)[C@H](C)NC(=O)[C@H](CCCNC(=N)N)NC(=O)[C@H](CCCCN)NC(=O)[C@H](CO)NC(=O)[C@H](CC(=O)O)NC(=O)[C@@H]3CSSC[C@H](NC(=O)[C@H](CCCNC(=N)N)NC(=O)[C@H](CC(C)C)NC(=O)CNC(=O)[C@H](CCC(=O)O)NC(=O)[C@H](CSSC[C@H](NC(=O)[C@@H](N)Cc4ccc(O)cc4)C(=O)N[C@@H](CCCNC(=N)N)C(=O)N[C@@H](CCCCN)C(=O)N[C@@H](Cc4c[nH]c5ccccc45)C(=O)N[C@@H](CCSC)C(=O)N[C@@H](Cc4c[nH]c5ccccc45)C(=O)N[C@@H]([C@@H](C)O)C(=O)N3)NC2=O)C(=O)N[C@@H](CCCCN)C(=O)N[C@@H](CC(C)C)C(=O)N[C@@H](Cc2c[nH]c3ccccc23)C(=O)N1)[C@@H](C)CC)C(N)=O [compound 91] | 0.14 µM | 6 | 0.06 µM | 0.025 µM | 3.2 µM | – | – | – | – |
| CC[C@H](C)[C@H](NC(=O)[C@@H](NC(=O)[C@H](CCCCN)NC(=O)[C@H](CCCNC(=N)N)NC(=O)[C@@H]1CSSC[C@@H]2NC(=O)[C@H](C)NC(=O)[C@H](CCCNC(=N)N)NC(=O)[C@H](CCCCN)NC(=O)[C@H](C)NC(=O)[C@H](CC(=O)O)NC(=O)[C@@H]3CSSC[C@H](NC(=O)[C@H](CCCNC(=N)N)NC(=O)[C@H](CC(C)C)NC(=O)CNC(=O)[C@H](CCC(=O)O)NC(=O)[C@H](CSSC[C@H](NC(=O)[C@@H](N)Cc4ccc(O)cc4)C(=O)N[C@@H](CCC(N)=O)C(=O)N[C@@H](CCCCN)C(=O)N[C@@H](Cc4c[nH]c5ccccc45)C(=O)N[C@@H](CCSC)C(=O)N[C@@H](Cc4c[nH]c5ccccc45)C(=O)N[C@@H]([C@@H](C)O)C(=O)N3)NC2=O)C(=O)N[C@@H](CCCCN)C(=O)N[C@@H](CC(C)C)C(=O)N[C@@H](Cc2c[nH]c3ccccc23)C(=O)N1)[C@@H](C)CC)C(N)=O [compound 11] | 0.16 µM | 13 | 0.14 µM | 0.012 µM | 3.6 µM | – | – | – | – |
| CCCC[C@@H]1NC(=O)[C@H](Cc2c[nH]c3ccccc23)NC(=O)[C@H](CCCCN)NC(=O)[C@H](CCC(N)=O)NC(=O)[C@@H](NC(=O)[C@@H](N)Cc2ccc(O)cc2)CSSC[C@@H]2NC(=O)[C@@H]3CSSC[C@@H](C(=O)N[C@@H](CCCNC(=N)N)C(=O)N[C@@H](CCCCN)C(=O)N[C@H](C(=O)N[C@H](C(N)=O)[C@@H](C)CC)[C@@H](C)CC)NC(=O)[C@H](Cc4c[nH]c5ccccc45)NC(=O)[C@H](CC(C)C)NC(=O)[C@H](Cc4cn(CCCOCCOCCOCCOCCOCCOCCOCCOCCOCCOCCN)nn4)NC(=O)[C@H](CSSC[C@H](NC(=O)[C@H]([C@@H](C)O)NC(=O)[C@H](Cc4c[nH]c5ccccc45)NC1=O)C(=O)N[C@@H](CC(=O)O)C(=O)N[C@@H](CO)C(=O)N[C@@H](CCCCN)C(=O)N[C@@H](CCCNC(=N)N)C(=O)N[C@@H](C)C(=O)N3)NC(=O)[C@H](CCCNC(=N)N)NC(=O)[C@H](CC(C)C)NC(=O)CNC(=O)[C@H](CCC(=O)O)NC2=O [compound 264] | – | – | – | – | – | > 7 µM | > 7 µM | > 7 µM | > 7 µM |
| CCCC[C@@H]1NC(=O)[C@H](Cc2cn(CCCOCCOCCOCCOCCOCCOCCOCCOCCOCCOCCN)nn2)NC(=O)[C@H](CCCCN)NC(=O)[C@H](CCC(N)=O)NC(=O)[C@@H](NC(=O)[C@@H](N)Cc2ccc(O)cc2)CSSC[C@@H]2NC(=O)[C@@H]3CSSC[C@@H](C(=O)N[C@@H](CCCNC(=N)N)C(=O)N[C@@H](CCCCN)C(=O)N[C@H](C(=O)N[C@H](C(N)=O)[C@@H](C)CC)[C@@H](C)CC)NC(=O)[C@H](Cc4c[nH]c5ccccc45)NC(=O)[C@H](CC(C)C)NC(=O)[C@H](CCCCN)NC(=O)[C@H](CSSC[C@H](NC(=O)[C@H]([C@@H](C)O)NC(=O)[C@H](Cc4c[nH]c5ccccc45)NC1=O)C(=O)N[C@@H](CC(=O)O)C(=O)N[C@@H](CO)C(=O)N[C@@H](CCCCN)C(=O)N[C@@H](CCCNC(=N)N)C(=O)N[C@@H](C)C(=O)N3)NC(=O)[C@H](CCCNC(=N)N)NC(=O)[C@H](CC(C)C)NC(=O)CNC(=O)[C@H](CCC(=O)O)NC2=O [compound 251] | – | – | – | – | – | > 7 µM | > 7 µM | > 7 µM | > 7 µM |
| CC[C@H](C)[C@H](NC(=O)[C@@H](NC(=O)[C@H](CCCCN)NC(=O)[C@H](CCCNC(=N)N)NC(=O)[C@@H]1CSSC[C@@H]2NC(=O)[C@H](C)NC(=O)[C@H](CCCNC(=N)N)NC(=O)[C@H](CCCCN)NC(=O)[C@H](CO)NC(=O)[C@H](CC(=O)O)NC(=O)[C@@H]3CSSC[C@H](NC(=O)[C@H](CCCNC(=N)N)NC(=O)[C@H](CC(C)C)NC(=O)CNC(=O)[C@H](CCCNC(=N)N)NC(=O)[C@H](CSSC[C@H](NC(=O)[C@@H](N)Cc4ccc(O)cc4)C(=O)N[C@@H](CCC(N)=O)C(=O)N[C@@H](CCCCN)C(=O)N[C@@H](Cc4c[nH]c5ccccc45)C(=O)N[C@@H](CCSC)C(=O)N[C@@H](Cc4c[nH]c5ccccc45)C(=O)N[C@@H]([C@@H](C)O)C(=O)N3)NC2=O)C(=O)N[C@@H](CCCCN)C(=O)N[C@@H](CC(C)C)C(=O)N[C@@H](Cc2c[nH]c3ccccc23)C(=O)N1)[C@@H](C)CC)C(N)=O [compound 101] | 0.06 µM | 4 | 0.04 µM | 0.014 µM | 0.95 µM | – | – | – | – |
| CCCC[C@@H]1NC(=O)[C@H](Cc2c[nH]c3ccccc23)NC(=O)[C@H](CCCCN)NC(=O)[C@H](CCC(N)=O)NC(=O)[C@@H](NC(=O)[C@@H](N)Cc2ccc(O)cc2)CSSC[C@@H]2NC(=O)[C@@H]3CSSC[C@@H](C(=O)N[C@@H](CCCNC(=N)N)C(=O)N[C@@H](CCCCN)C(=O)N[C@H](C(=O)N[C@H](C(N)=O)[C@@H](C)CC)[C@@H](C)CC)NC(=O)[C@H](Cc4c[nH]c5ccccc45)NC(=O)[C@H](Cc4cn(CCCOCCOCCOCCOCCOCCOCCOCCOCCOCCOCCN)nn4)NC(=O)[C@H](CCCCN)NC(=O)[C@H](CSSC[C@H](NC(=O)[C@H]([C@@H](C)O)NC(=O)[C@H](Cc4c[nH]c5ccccc45)NC1=O)C(=O)N[C@@H](CC(=O)O)C(=O)N[C@@H](CO)C(=O)N[C@@H](CCCCN)C(=O)N[C@@H](CCCNC(=N)N)C(=O)N[C@@H](C)C(=O)N3)NC(=O)[C@H](CCCNC(=N)N)NC(=O)[C@H](CC(C)C)NC(=O)CNC(=O)[C@H](CCC(=O)O)NC2=O [compound 265] | – | – | – | – | – | > 7 µM | 5.6 µM | 4.8 µM | > 7 µM |
